Measured values as given in patent publication US12144834B2, “Methods and compositions for treating gastrointestinal and inflammatory disorders” (Xbiome Inc., priority 2018, dated 2024).
Converted amounts (≈) assume the structure as drawn. Where two headings read alike, the source gives them in different places.

Legend:
[1] = tested on: BTH01; experiment: Phenotypic antibiotic susceptibility (MIC), research cell bank; assay type: cell-based, Bacteroides thetaiotaomicron; details: for MIC: Bacteroides thetaiotaomicron, read-out: Determined MIC; for MIC Interpretation: against BTH01
[2] = tested on: RHO01; experiment: Phenotypic antibiotic susceptibility (MIC, Etests), research cell bank; assay type: cell-based, Roseburia hominis; details: for MIC: Roseburia hominis, read-out: Determined MIC; for MIC Interpretation: against RHO01
[3] = tested on: EHA01; experiment: as above; assay type: cell-based, Eubacterium hallii; details: for MIC: Anaerobutyricum hallii, read-out: Determined MIC; for MIC Interpretation: against EHA01

| SMILES | MIC ([1]; against BTH01, agar dilution) | MIC Interpretation [1] | MIC ([2]; against RHO01, Etests) | MIC Interpretation [2] | MIC ([3]; against EHA01, Etests) | MIC Interpretation [3] | MIC [1] | MIC [2] | MIC [3] |
| --- | --- | --- | --- | --- | --- | --- | --- | --- | --- |
| CC1(C)S[C@@H]2[C@H](NC(=O)[C@H](N)c3ccccc3)C(=O)N2[C@H]1C(=O)O [Ampicillin] | 32 µg/mL (≈ 91.6 µM) | R | ≤ 0.016 µg/mL | S | 0.06 µg/mL (≈ 0.172 µM) | S | – | – | – |
| CO[C@@]1(NC(=O)C2SC(=C(C(N)=O)C(=O)O)S2)C(=O)N2C(C(=O)O)=C(CSc3nnnn3C)CS[C@@H]21 (some centres unmarked) [Cefotetan] | 256 µg/mL (≈ 445 µM) | R | – | – | – | – | – | – | – |
| CCC[C@@H]1C[C@@H](C(=O)N[C@@H]([C@H]2O[C@H](SC)[C@H](O)[C@@H](O)[C@H]2O)[C@H](C)Cl)N(C)C1 [Clindamycin] | > 32 µg/mL | R | ≤ 0.016 µg/mL | S | 0.03 µg/mL (≈ 0.0706 µM) | S | – | – | – |
| C[C@@H](O)[C@H]1C(=O)N2C(C(=O)O)=C(SCCN=CN)C[C@H]12 [Imipenem] | 0.5 µg/mL (≈ 1.67 µM) | S | 0.12 µg/mL (≈ 0.401 µM) | S | 0.008 µg/mL (≈ 0.0267 µM) | S | – | – | – |
| Cc1ncc([N+](=O)[O-])n1CCO [Metronidazole] | 2 µg/mL (≈ 11.7 µM) | S | 0.03 µg/mL (≈ 0.175 µM) | S | 0.06 µg/mL (≈ 0.351 µM) | S | – | – | – |
| COc1c(N2C[C@@H]3CCCN[C@@H]3C2)c(F)cc2c(=O)c(C(=O)O)cn(C3CC3)c12 [Moxifloxacin] | 2 µg/mL (≈ 4.98 µM) | S | 32 µg/mL (≈ 79.7 µM) | R | 2 µg/mL (≈ 4.98 µM) | S | – | – | – |
| CN[C@H](CC(C)C)C(=O)N[C@H]1C(=O)N[C@@H](CC(N)=O)C(=O)N[C@H]2C(=O)N[C@H]3C(=O)N[C@H](C(=O)N[C@H](C(=O)O)c4cc(O)cc(O)c4-c4cc3ccc4O)[C@H](O)c3ccc(c(Cl)c3)Oc3cc2cc(c3O[C@@H]2O[C@H](CO)[C@@H](O)[C@H](O)[C@H]2O[C@H]2C[C@](C)(N)[C@H](O)[C@H](C)O2)Oc2ccc(cc2Cl)[C@H]1O [Vancomycin] | – | – | – | – | – | – | 64 µg/mL (≈ 44.2 µM) | 0.25 µg/mL (≈ 0.173 µM) | 0.12 µg/mL (≈ 0.0828 µM) |
